Experimental data reported in patent US20220000892A1, “INFANT NUTRITIONAL COMPOSITION FOR USE IN THE ENHANCEMENT OF PANCREATIC MATURATION AND INSULIN BIOSYNTHESIS” (SOCIETE DES PRODUITS NESTLE S.A., priority 2018, published 2022).

Test system: IUGR rats
Experiment: Insulin content of pancreas of IUGR rats at postnatal day 57 after HMO supplementation (ELISA)
Assay type: in vivo, Sprague-Dawley rats
Conditions: gavage 3 g/kg body weight d7 to d21, then diet with 4.5 wt% HMO d22 to d57, sacrifice at day 57 after 6-hr fasting, compared with control IUGR rats (about 50 μg insulin per g pancreatic tissue), FIG. 1, *P<0.05
Excerpt: Three groups of time-mated pregnant Sprague-Dawley female rats were bought from Charles River laboratories. One group was submitted to food restriction of 60% during the last 10 days of gestation and their offspring were cross-fostered to normally fed rats. A second group of pregnant females was normally fed and their offspring cross-fostered among the same group of dams. Immediately after birth ([…]), the born rat pups-subjects of the experiment-were assigned to one of the following groups: • IUGR group (negative control; n=20): IUGR rats being fed a normal diet after birth; • IUGR rats+HMO (test groups): During the experiment, they were reared by their mothers for 21 days and supplemented with HMOs (2-FL, LNnT or the Mix of 2-FL and LNnT). At weaning, they were fed a diet supplemented with the same HMOs, see details below. […] All rat pups were fed from birth (d=1) up to 57 days (d=57) based on the following protocol: • d1 to d6: all groups of rats were nursed by dam (mothers' milk only); • d7 to d21: all rats were nursed by dam (mothers' milk only). […] Rats were sacrificed at day 57 (postnatal day 57=p57) after a 6-hr fasting period and pancreas was dissected and its insulin content was extracted using a solution acid-ethanol and quantified using an Ultra Sensitive Insulin ELISA kit ([…]., Downer Grove, Ill., USA) with and inter assay CV of 4.0%.

Compound | insulin content of the rat's pancreas (amount of insulin per gram of pancreatic tissue)
CC(=O)N[C@H]1[C@H](O[C@H]2[C@@H](O)[C@@H](CO)O[C@@H](O[C@H]3[C@H](O)[C@@H](O)C(O)O[C@@H]3CO)[C@@H]2O)O[C@H](CO)[C@@H](O[C@@H]2O[C@H](CO)[C@H](O)[C@H](O)[C@H]2O)[C@@H]1O (mixture of isomers) [LNnT, lacto-N-neotetraose] | about the same level of insulin
2′-fucosyllactose [2FL] | significantly higher value of insulin
